Experimental data from article PMC7616682 (Journal of biological inorganic chemistry : JBIC : a …, 2024).
In brackets after ≈: the same amount, converted by molar mass. Where two headings read alike, the source gives them in different places.

Tests used:
[1] = tested on: Psuedomonas aeruginosa ATCC BAA-47; test: Rapid screen broth microdilution assay; type: cell-based, Pseudomonas aeruginosa; conditions: rapid screen without replicates, 24 h, read-out: MIC P. aeruginosa (Gram negative)
Experimental: (§1) Antibacterial activity assay
(§2) Rapid screen broth microdilution assay
(§3) 5 × 125 mL Erlenmeyer flasks, each filled with 12.5 mL Mueller Hinton broth II (MHBII), were inoculated with Klebsiella pneumoniae ATCC 13883, Acinetobacter baumanii ATCC 17978, Psuedomonas aeruginosa ATCC BAA-47, Staphylococcus aureus […]
(§4) with 12.5 mL BHI broth was inoculated with Enterococcus faecium ATCC 19434. The cultures were incubated at 37 °C with shaking at 180 rpm for 16 h. The suspensions were diluted 100-fold with the requisite broth (E. faecium: 4-fold) and the resultant suspensions incubated for a further 3 h at 37 °C with shaking. […]
(§5) of 0.8–1.2 after 3 h. Stock solutions of the title compounds were prepared in the requisite broth from 100 mM stocks in DMSO with the exceptions of carbenicillin, which was from a 100 mM stock in water and ciprofloxacin from a 10 mM stock in DMSO.
(§6) 6 × 96 well plates were primed with a concentration gradient of the analytes from 200 to 3.13 µM, carbenicillin from 200 to 3.13 µM and ciprofloxacin from 10 to 0.16 µM. The cells were diluted 100-fold to an OD600 of 0.01. All plates were then inoculated with 50 μL per well bacterial culture in the requisite broth to 100 μL per well. Plates were then incubated at 37 °C for 24 h before reading OD600 on a BMG Clariostar platereader. […]

[2] = tested on: Klebsiella pneumoniae ATCC 13883; test: Rapid screen broth microdilution assay; type: cell-based; conditions: rapid screen without replicates, 24 h, read-out: MIC K. pnuemoniae (Gram negative)
Experimental: as §1, §2, §3, §4, §5, §6

[3] = tested on: Acinetobacter baumanii ATCC 17978; test: Rapid screen broth microdilution assay; type: cell-based, Acinetobacter baumannii; conditions: rapid screen without replicates, 24 h, read-out: MIC A. baumannii (Gram negative)
Experimental: as §1, §2, §3, §4, §5, §6

[4] = tested on: S. aureus NTCC 12973; test: MIC broth microdilution assay; type: cell-based, Staphylococcus aureus; conditions: 24 h, read-out: MIC S. aureus (Gram positive)
Experimental: (§7) Antibacterial activity assay […]
(§8) MIC broth microdilution assay
(§9) 3 × 125 mL Erlenmeyer flasks, each filled with 12.5 mL MHBII, were inoculated with three different colonies of S. aureus NTCC 12973. 3 × 125 mL Erlenmeyer flasks, each filled with 12.5 mL BHI broth, were inoculated with three different colonies of E. faecium ATCC 19434. The cultures were incubated at 37 °C with shaking at 180 rpm for 16 h.
(§10) OD600 of ~2.5. The suspensions of S. aureus cultures were diluted 100-fold with MHBII while the E. faecium cultures were diluted 4-fold. The resultant suspensions were incubated for a further 3 h at 37 °C with shaking. […]
(§11) after 3 h. Stock solutions of the title compounds were prepared in the requisite broth from 100 mM stocks in DMSO with the exception of carbenicillin, which was from a 100 mM stock in water and vancomycin from a 10 mM stock in DMSO. 15 × 96 well plates were primed with concentration gradients of the analytes and carbenicillin as shown in Figure S60 for S. aureus. 15 × 96 well plates were primed with the concentration […]
(§12) μL per well of the relevant bacterial culture in the requisite broth to 100 μL per well.
Plates were then incubated at 37 °C for 24 h before reading OD600 on a BMG Clariostar […]
Figure S50: Dose response profiles of the title compounds against S. aureus.
(§13) (1 picture or pasted object on this page, not shown here)

[5] = tested on: Escherichia coli K12 ATCC 10798; test: Rapid screen broth microdilution assay; type: cell-based; conditions: rapid screen without replicates, 24 h, read-out: MIC E. coli (Gram negative)
Experimental: as §1, §2, §3, §4, §5, §6

[6] = tested on: BEASB2, HaCat, RPE1, HCT116 and HeLa cell lines; test: Cell viability, summary over all cell lines studied; type: cell-based, human; conditions: summary of Table 3, 48 h; for IC50: read-out: IC50 values, range over all cell lines studied
Experimental: (§14) To determine the relative viability, after incubation cells were fixed and stained with DAPI and the number of nuclei per well determined using a CeligoTM Image Cytometer (Figure S52 to S60). […] page 43: Cell viability studies Compound cytotoxicity was tested simultaneously on five representative cell lines […] All cells were cultured in DMEM Glutamax without pyruvate with 10% fetal bovine serum and 1% penicillin/streptomycin (Gibco). Cells were incubated with the compound for 24 or 48 h […] The tested concentration range for each compound was […] The required […] Greiner CELLSTAR® microplates) using the Echo 550 Acoustic Liquid Handler and wells were back-filled with DMSO when required to keep a final DMSO concentration […] Next, 50 μL of cell solution was added to the compound-containing wells using the Integra® […] Bulk dispenser. Cell solutions were prepared to get 5000 […] cells per well for hTERT RPE-1, and 5000 (24 h)/2500 (48 h) cells per well for BEAS- […] After incubation, cells were fixed with 4% PFA (Merck, […]), permeabilized with […] DAPI (Merck, 10236276001). Viable cells were counted using 377 nm excitation and 447 nm emission filters on the CeligoTM Image Cytometer. The number of nuclei per well was determined using the Direct Cell Count analysis from the CeligoPro Sofware […] All conditions were performed in triplicate. Staurosporine (Cambridge Bioscience, s7600) was used as a positive control and DMSO only as a negative control. The percentage of cell viability was normalized to the DMSO-only control and […] logistic curve with the scipy.optimize.curve_fit function. S43

[7] = tested on: HeLa (cervical cancer) cells; test: Cell viability (DAPI nuclei count); type: cell-based, human; conditions: 48 h
Experimental: as §14

[8] = tested on: HCT116 (colorectal cancer) cells; test: Cell viability (DAPI nuclei count); type: cell-based, human; conditions: 48 h
Experimental: as §14

[9] = tested on: RPE1 (retinal pigment epithelial cells); test: Cell viability (DAPI nuclei count); type: cell-based, human; conditions: 48 h
Experimental: as §14

[10] = tested on: HaCat (non-cancer skin) cells; test: Cell viability (DAPI nuclei count); type: cell-based, human; conditions: 48 h
Experimental: as §14

[11] = tested on: BEAS2B (non-cancer lung) cells; test: Cell viability (DAPI nuclei count); type: cell-based, human; conditions: 48 h
Experimental: as §14

[12] = tested on: E. faecium ATCC 19434; test: MIC broth microdilution assay; type: cell-based, Enterococcus faecium; conditions: three colonies, 24 h; for MIC: read-out: MIC E. faecium (Gram positive)
Experimental: as §7, §8, §9, §10, §11, §12

[13] = LogP by shake-flask method (n-octanol/phosphate buffer)
Experimental: using the "shake-flask" method.[6],[7] In short, phosphate buffer (50 mM, pH 7.4) was saturated with n-octanol by shaking a 1:1 mixture of both solution on a laboratory shaker for 72 h, after which the phases were separated. Stock solutions of each complex were then prepared in dimethylsulfoxide at a concentration of 10 mM. […]
(§15) solution with a concentration of 100 µM. From this solution, 1000 µL were transferred into an Eppendorf tube and mixed with 1000 µL of n-octanol. After shaking for 15 min and centrifugation (5 min, 6000 rpm), the two phases were carefully separated, and the contact layer discarded. Then, the absorbance of each phase was recorded with an Agilent 8453 UV/Vis spectrometer.
as §15, with “2 mL solution with” for “solution with”, “1000 µL phosphate buffer. After shaking” for “1000 µL of n-octanol. After shaking”, “rpm), the phases were” for “rpm), the two phases were”

[14] = biological target: T1, avidin (Gallus gallus, UniProt P02701); test: HABA/avidin assay; type: binding; conditions: titration of HABA/avidin mixture, absorbance at 500 nm
T1 construct: purchased SIGMA-ALDRICH A9275
T1 sequence (P02701 25-152): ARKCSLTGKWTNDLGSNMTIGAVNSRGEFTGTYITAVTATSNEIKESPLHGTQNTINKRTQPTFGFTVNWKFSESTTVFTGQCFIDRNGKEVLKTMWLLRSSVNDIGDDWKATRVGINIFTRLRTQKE
Experimental: properties towards avidin using the HABA assay.[8] A mixture of avidin (6.8 μM, SIGMA-ALDRICH: A9275) and 4'-hydroxyazobenzene-2-carboxylic acid (HABA, 0.3 mM, SIGMA-ALDRICH: H5126) was dissolved in 50 mM sodium phosphate buffer (20 mL, pH 7.4) and allowed to equilibrate for 24 h at 4 °C. Stock solutions of each compound were prepared in dimethyl sulfoxide at a concentration of 1.1 mM. The […]
to the prepared avidin/HABA mixture (1 mL) at room temperature at 5–10 min intervals […]
absorbance then recorded with an Agilent 8453 UV/Vis spectrometer. The formation of the adduct was indicated by a decrease in the absorbance at 500 nm due to the displacement of HABA from the avidin. By plotting -ΔA500 nm vs. the molar concentration ratio c(compound):c(avidin), the binding stoichiometry of the compound to avidin was determined.

[15] = biological target: streptavidin (Streptomyces avidinii, UniProt P22629); test: Isothermal titration calorimetry (ITC) with streptavidin; type: binding; conditions: 25 °C, 10 mM HEPES + 2% DMSO, read-out: dissociation constant (Kd) to streptavidin
Sequence of streptavidin (P22629 25-183, species assumed): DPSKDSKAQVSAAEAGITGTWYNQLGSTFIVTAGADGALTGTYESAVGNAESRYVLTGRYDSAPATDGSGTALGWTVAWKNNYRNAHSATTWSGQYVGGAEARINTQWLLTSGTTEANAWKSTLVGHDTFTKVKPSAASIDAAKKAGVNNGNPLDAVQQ
Experimental: Isothermal titration calorimetry
Streptavidin (20 µM in 10 mM HEPES plus 2% DMSO) was titrated stepwise with 2 uL injections of the compound (200 µM in 10 mM HEPES + 2% DMSO) at 25 °C, using a Malvern MicroCal PEAQ-ITC. Raw thermograms (top panels) and the binding isotherm from the integrated thermogram (bottom panels) were fit using the One Set of Sites model in the MicroCal PEAQ-ITC analysis software. Circles indicate the integrated heat, and the curve represents the best fit.
Figure S46: Isothermal titration calorimetry measurements of 5.
as §13

| Compound | MIC ([4]; three colonies) [µM] | IC50 [6] [µM] | IC50 [7] [µM] | IC50 [8] [µM] | IC50 [9] [µM] | IC50 [10] [µM] | IC50 [11] [nM] | MIC E. faecium (Gram positive) [12] [µM] | MIC [1] [µM] | MIC [5] [µM] | MIC [2] [µM] | MIC [3] [µM] | LogP ([13]; pH 7.4) | MIC [12] [µM] | avidin binding in HABA assay (result in words) [14] | further results |
| --- | --- | --- | --- | --- | --- | --- | --- | --- | --- | --- | --- | --- | --- | --- | --- | --- |
| O=C(O)c1cn(C2CC2)c2cc(N3CCNCC3)c(F)cc2c1=O [Ciprofloxacin, reference compound] |  |  |  |  |  |  |  |  |  |  |  |  |  |  |  | MIC ([1]; Pseudomonas aeruginosa, ATCCBAA47): 100 µM (≈ 33.1 µg/mL); MIC ([2]; Klebsiella pneumoniae, ATCC13883): < 0.16 µM; MIC ([3]; Acinetobacter baumannii, ATCC17978): 0.31 µM (≈ 0.103 µg/mL) |
| CC1(C)S[C@@H]2[C@H](NC(=O)C(C(=O)O)c3ccccc3)C(=O)N2[C@H]1C(=O)O (stereo partly drawn) [Carbenicillin, reference compound] |  |  |  |  |  |  |  |  |  |  |  |  |  |  |  | MIC ([4]; Staphylococcus aureus, NTCC12973, three colonies): 12.5 µM (≈ 4.73 µg/mL); MIC ([5]; Escherichia coli, ATCC10798): 12.5 µM (≈ 4.73 µg/mL) |
| [Au(triazolatoC6H5,biotin)(PPh3)] [Compound 12] | 1.25 | 2 to 8 | 3.8 | 7.2 | 3.6 | 6.6 | 2700 | 0.625 to 2.5 | >200 | >200 | >200 | 50 |  |  |  |  |
| COC(=O)c1n[n]([Pt][c]2c(-c3ccccn3)cccc2-c2ccccn2)nc1C(=O)OC [Compound 13] | 200 |  | > 50 | > 50 | > 50 | > 50 |  |  | >200 | >200 | >200 | >200 | highly lipophilic^a | >200 | non-specific protein binding | IC50 values, range over all cell lines studied [6]: did not show any biological activity |
| COC(=O)c1n[n]([Ir+][c]2ccccc2-c2ccccn2)nc1C(=O)OC.F[P-](F)(F)(F)(F)F.c1ccc(-c2cccc(-c3ccccn3)n2)nc1 [Compound 17] | >200 | > 35 | > 50 | > 50 | 35 | > 50 |  |  | >200 | >200 | >200 | >200 | -1.02 | >200 | non-specific protein binding |  |
| CC(=O)c1n[n]([Au][PH](c2ccccc2)(c2ccccc2)c2ccccc2)nc1-c1ccccc1 [Compound 11, [Au(triazolatoC6H5,COCH3)(PPh3)]] | 2.5 | 2 to 8 | 3.5 | 5.5 | 2.7 | 6.1 | 2500 | 0.625 to 5 | >200 | >200 | >200 | 100 | highly lipophilic^a |  | non-specific protein binding |  |
| [Ir(triazolatoC6H5,biotin)(ppy)(terpy]PF6 [Compound 18] | 100 | > 35 | > 50 | > 50 | 39.7 | > 50 |  |  | >200 | >200 | >200 | >200 |  | 100 |  | Kd [15]: 45 nM |
| O=C1N[C@H]2[C@H](CS[C@H]2CCCCC(=O)c2n[n]([Pt][c]3c(-c4ccccn4)cccc3-c3ccccn3)nc2-c2ccccc2)N1 [Compound 14, [Pt(triazolatoC6H5,biotin)(dpb)]] | 12.5 |  | 8.2 | 9.4 | 7.4 | 10.2 | 6700 | 5 to 10 | >200 | >200 | >200 | >200 |  |  |  | LogP ([13]; shake-flask method, n-octanol/phosphate buffer 50 mM pH 7.4): highly lipophilic^a |
